Columns and labels:
Leishmania major [1] = experiment: Antileishmanial activity against Leishmania major promastigotes assessed as parasite growth inhibition incubated for 24 hrs by Alamar blue staining based assay; format: functional, organism-based
Leishmania major [2] = experiment: Antileishmanial activity against Leishmania major amastigotes assessed as parasite growth inhibition incubated for 72 hrs by resazurin dye based assay; format: functional, organism-based
[3] = Cytotoxicity against African green monkey Vero cells assessed as reduction in cell viability incubated for 72 hrs by crystal violet staining based analysis; format: toxicity; details: chlorocebus sabaeus
[4] = Selectivity index, ratio of CC50 for cytotoxicity against African green monkey Vero cells to IC50 for antileishmanial activity against Leishmania major amastigotes assessed as parasite growth inhibition; format: toxicity, cell-based; details: read-out: Ratio CC50/IC50
Leishmania major [5] = experiment: Antileishmanial activity against Leishmania major promastigotes assessed as parasite growth inhibition incubated for 48 hrs; format: functional; set-up: scale not given: the % may be the effect or the level left
Leishmania major [6] = experiment: Antileishmanial activity against Leishmania major promastigotes assessed as parasite growth inhibition at 20 uM incubated for 48 hrs in presence of folic acid relative to control; format: functional; set-up: scale not given: the % may be the effect or the level left
Leishmania major [7] = experiment: Antileishmanial activity against Leishmania major promastigotes assessed as parasite growth inhibition at 100 uM incubated for 48 hrs in presence of folic acid relative to control; format: functional; set-up: scale not given: the % may be the effect or the level left
Leishmania major [8] = experiment: Antileishmanial activity against Leishmania major promastigotes assessed as parasite growth inhibition at 20 uM incubated for 48 hrs in presence of folinic acid relative to control; format: functional; set-up: scale not given: the % may be the effect or the level left
Leishmania major [9] = experiment: Antileishmanial activity against Leishmania major promastigotes assessed as parasite growth inhibition at 100 uM incubated for 48 hrs in presence of folinic acid relative to control; format: functional; set-up: scale not given: the % may be the effect or the level left

Structure (SMILES)	IC50 (Leishmania major [1]) [µM]	IC50 (Leishmania major [2]) [µM]	other results
O=C1/C(=N/Nc2ccnc3cc(Cl)ccc23)c2cc(Br)ccc2N1Cc1ccccc1	5.95	8.29	–
CC(C)CN1C(=O)/C(=N/Nc2ccnc3cc(Cl)ccc23)c2cc(Cl)ccc21	3.5	6.03	–
CCN1C(=O)/C(=N\Nc2ccnc3cc(Cl)ccc23)c2ccccc21	3.45	5.85	–
O=C1Nc2c(F)cccc2/C1=N/Nc1ccnc2cc(Cl)ccc12	1.1	1.1	–
CCCN1C(=O)/C(=N/Nc2ccnc3cc(Cl)ccc23)c2ccccc21	3.16	5.49	–
CN1C(=O)/C(=N/Nc2ccnc3cc(Cl)ccc23)c2cc(Br)ccc21	1.74	3.46	–
CCN1C(=O)/C(=N/Nc2ccnc3cc(Cl)ccc23)c2cc(Cl)ccc21	2.96	4.34	–
CCCN1C(=O)/C(=N/Nc2ccnc3cc(Cl)ccc23)c2cc(Cl)ccc21	2.99	4.99	–
O=C1/C(=N/Nc2ccnc3cc(Cl)ccc23)c2ccccc2N1Cc1ccccc1	3.97	6.88	–
O=C1Nc2ccc(Cl)cc2/C1=N/Nc1ccnc2cc(Cl)ccc12	0.67	1.26	–
CCN1C(=O)/C(=N/Nc2ccnc3cc(Cl)ccc23)c2cc(Br)ccc21	3.21	5.12	–
CN1C(=O)/C(=N\Nc2ccnc3cc(Cl)ccc23)c2ccccc21	1.88	3.49	–
O=C1Nc2ccc(F)cc2/C1=N/Nc1ccnc2cc(Cl)ccc12	0.557	0.721	CC50 at 72 h [3]: 184 µM; selectivity ratio [4]: 255; Activity (Leishmania major [5]): 25%; Activity (Leishmania major [6]): 80%; Activity (Leishmania major [7]): 90%; Activity (Leishmania major [8]): 84%; Activity (Leishmania major [9]): 94%
CN1C(=O)/C(=N/Nc2ccnc3cc(Cl)ccc23)c2cc(Cl)ccc21	1.87	3.25	–
CC(C)CN1C(=O)/C(=N\Nc2ccnc3cc(Cl)ccc23)c2ccccc21	2.67	3.99	–
O=C1Nc2ccccc2/C1=N/Nc1ccnc2cc(Cl)ccc12	0.986	2.45	–
O=C1/C(=N/Nc2ccnc3cc(Cl)ccc23)c2cc(Cl)ccc2N1Cc1ccccc1	4	5.3	–
O=C1Nc2ccc(OC(F)(F)F)cc2/C1=N/Nc1ccnc2cc(Cl)ccc12	0.668	0.944	CC50 at 72 h [3]: 308 µM; selectivity ratio [4]: 326; Activity (Leishmania major [5]): 28%; Activity (Leishmania major [6]): 86%; Activity (Leishmania major [7]): 93%; Activity (Leishmania major [8]): 96%; Activity (Leishmania major [9]): 98%
CC(C)CN1C(=O)/C(=N/Nc2ccnc3cc(Cl)ccc23)c2cc(Br)ccc21	4.11	6.86	–
O=C1Nc2ccc(Br)cc2/C1=N/Nc1ccnc2cc(Cl)ccc12	0.508	0.604	CC50 at 72 h [3]: 156 µM; selectivity ratio [4]: 258; Activity (Leishmania major [5]): 21%; Activity (Leishmania major [6]): 74%; Activity (Leishmania major [7]): 87%; Activity (Leishmania major [8]): 76%; Activity (Leishmania major [9]): 91%
COc1cc(Cc2cnc(N)nc2N)cc(OC)c1OC [TRIMETHOPRIM]	–	–	Activity (Leishmania major [5]): 71%; Activity (Leishmania major [7]): 99%

— ChEMBL document CHEMBL5331075, “New antileishmanial quinoline linked isatin derivatives targeting DHFR-TS and PTR1: Design, synthesis, and molecular modeling studies” (Eur J Med Chem, 2023)
